Test results from US20260193271A1, “PAN-KRAS INHIBITOR COMPOUND” (ADLAI NORTYE BIOPHARMA CO., LTD., priority 2022, published 2026).

Key:
AsPC-1 (G12D) = test: In vitro cell proliferation inhibition test (CellTiter-Glo), AsPC-1; type: cell-based; conditions: Homo sapiens, ASPC1, AsPC-1 pancreas cell line, KRAS (p.G12D), 72 h co-incubation
In short: (§1)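 IC50 was derived by four-parameter fitting of normalized CellTiter-Glo signals. These were measured after 72 h co-incubation with compound at 10 concentrations, 3-fold serial, final maximum 10 μM. Plating was 1000-5000 cells/well, adjusted to growth rate, with overnight attachment at 37 °C, 5% CO2.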

SW480 (G12V) = test: In vitro cell proliferation inhibition test (CellTiter-Glo), SW480; type: cell-based; conditions: Homo sapiens, SW480 colon cell line, KRAS (p.G12V), 72 h co-incubation
In short: as §1

| IC50 (AsPC-1 (G12D)) [nM] | IC50 (SW480 (G12V)) [nM] | Structure (SMILES) |
| --- | --- | --- |
| 2.6 | 3.7 | CCn1c(-c2cc(-c3ccc(CN4CCN(C)CC4)cn3)cnc2[C@H](C)OC)c2c3cc(ccc31)-c1csc(n1)C[C@H](NC(=O)[C@H]1C[C@@H]1C)C(=O)N1CCC[C@H](N1)C(=O)OCC(C)(C)C2 (atropisomer, axis not shown) [Compound 41, (1S,2S)-N-((6^3S,4S,Z)-1^1-ethyl-1^2-(6′-((S)-1-methoxyethyl)-5-((4-methylpiperazin-1-yl)methyl)-[2,3′-bipyridin]-5′-yl)-10,10-dimethyl-5,7-dioxo-6^1,6^2,6^3,6^4,6^5,6^6-hexahydro-1^1H-8-oxa-2(4,2)-thiazola-1(5,3)-indola-6(1,3)-pyridazinacycloundecaphane-4-yl)-2-methylcyclopropane-1-carboxamide] |
| 3 | 3.5 | CCn1c(-c2cc(-c3cncc(CN4CCS(=N)(=O)CC4)c3)cnc2[C@H](C)OC)c2c3cc(ccc31)-c1csc(n1)C[C@H](NC(=O)[C@H]1[C@H](C)[C@@H]1C)C(=O)N1CCC[C@H](N1)C(=O)OCC(C)(C)C2 (atropisomer, axis not shown) [Compound 42, (1r,2R,3S)-N-((6^3S,4S,Z)-1^1-ethyl-1^2-(5′-((1-imino-1-oxido-16-thiomorpholino)methyl)-6-((S)-1-methoxyethyl)-[3,3′-bipyridin]-5-yl)-10,10-dimethyl-5,7-dioxo-6^1,6^2,6^3,6^4,6^5,6^6-hexahydro-1^1H-8-oxa-2(4,2)-thiazola-1(5,3)-indola-6(1,3)-pyridazinacycloundecaphane-4-yl)-2,3-dimethylcyclopropane-1-carboxamide] |
| 17 | 3.8 | CCn1c(-c2cc(-c3cc4c(cn3)CN(C)C4)cnc2[C@H](C)OC)c2c3cc(ccc31)-c1csc(n1)C[C@H](NC(=O)[C@H]1C[C@@H]1C)C(=O)N1CCC[C@H](N1)C(=O)OCC(C)(C)C2 (atropisomer, axis not shown) [Compound 43, (1S,2S)-N-((6^3S,4S,Z)-1^1-ethyl-1^2-(2-((S)-1-methoxyethyl)-5-(2-methyl-2,3-dihydro-1H-pyrrolo[3,4-c]pyridin-6-yl)pyridin-3-yl)-10,10-dimethyl-5,7-dioxo-6^1,6^2,6^3,6^4,6^5,6^6-hexahydro-1^1H-8-oxa-2(4,2)-thiazola-1(5,3)-indola-6(1,3)-pyridazinacycloundecaphane-4-yl)-2-methylcyclopropane-1-carboxamide] |
| 0.26 | 0.35 | CO[C@@H](C)c1ncc(-c2cnc(CN3CCOCC3)nc2)cc1-c1c2c3cc(ccc3n1CC(F)(F)F)-c1csc(n1)C[C@H](NC(=O)[C@H]1[C@H](C)[C@@H]1C)C(=O)N1CCC[C@H](N1)C(=O)OCC(C)(C)C2 (atropisomer, axis not shown) [Compound 44, (1r,2R,3S)-N-((6^3S,4S,Z)-1^2-(2-((S)-1-methoxyethyl)-5-(2-(morpholinomethyl)pyrimidin-5-yl)pyridin-3-yl)-10,10-dimethyl-5,7-dioxo-1^1-(2,2,2-trifluoroethyl)-6^1,6^2,6^3,6^4,6^5,6^6-hexahydro-1^1H-8-oxa-2(4,2)-thiazola-1(5,3)-indola-6(1,3)-pyridazinacycloundecaphane-4-yl)-2,3-dimethylcyclopropane-1-carboxamide] |
| 5.3 | 6.2 | CCn1c(-c2cc(-c3cnc4c(c3)CN(C)C4)cnc2[C@H](C)OC)c2c3cc(ccc31)-c1csc(n1)C[C@H](NC(=O)[C@H]1C[C@@H]1C)C(=O)N1CCC[C@H](N1)C(=O)OCC(C)(C)C2 (atropisomer, axis not shown) [Compound 45, (1S,2S)-N-((6^3S,4S,Z)-1^1-ethyl-1^2-(2-((S)-1-methoxyethyl)-5-(6-methyl-6,7-dihydro-5H-pyrrolo[3,4-b]pyridin-3-yl)pyridin-3-yl)-10,10-dimethyl-5,7-dioxo-6^1,6^2,6^3,6^4,6^5,6^6-hexahydro-1^1H-8-oxa-2(4,2)-thiazola-1(5,3)-indola-6(1,3)-pyridazinacycloundecaphane-4-yl)-2-methylcyclopropane-1-carboxamide] |
| 6.1 | 4.1 | CCn1c(-c2cc(-c3ccc(CN4CC[C@@H](F)C4)cn3)cnc2[C@H](C)OC)c2c3cc(ccc31)-c1csc(n1)C[C@H](NC(=O)[C@H]1C[C@@H]1C)C(=O)N1CCC[C@H](N1)C(=O)OCC(C)(C)C2 (atropisomer, axis not shown) [Compound 46, (1S,2S)-N-((6^3S,4S,Z)-1^1-ethyl-1^2-(5-(((R)-3-fluoropyrrolidin-1-yl)methyl)-6′-((S)-1-methoxyethyl)-[2,3′-bipyridin]-5′-yl)-10,10-dimethyl-5,7-dioxo-6^1,6^2,6^3,6^4,6^5,6^6-hexahydro-1^1H-8-oxa-2(4,2)-thiazola-1(5,3)-indola-6(1,3)-pyridazinacycloundecaphane-4-yl)-2-methylcyclopropane-1-carboxamide] |
| 2.9 | 6.1 | CCn1c(-c2cc(-c3ccc(CN4CC[C@@H](O)C4)cn3)cnc2[C@H](C)OC)c2c3cc(ccc31)-c1csc(n1)C[C@H](NC(=O)[C@H]1C[C@@H]1C)C(=O)N1CCC[C@H](N1)C(=O)OCC(C)(C)C2 (atropisomer, axis not shown) [Compound 47, (1S,2S)-N-((6^3S,4S,Z)-1^1-ethyl-1^2-(5-(((R)-3-hydroxypyrrolidin-1-yl)methyl)-6′-((S)-1-methoxyethyl)-[2,3′-bipyridin]-5′-yl)-10,10-dimethyl-5,7-dioxo-6^1,6^2,6^3,6^4,6^5,6^6-hexahydro-1^1H-8-oxa-2(4,2)-thiazola-1(5,3)-indola-6(1,3)-pyridazinacycloundecaphane-4-yl)-2-methylcyclopropane-1-carboxamide] |
| 1 | 4.3 | CCn1c(-c2cc(-c3ncc(CN4CCS(=N)(=O)CC4)cn3)cnc2[C@H](C)OC)c2c3cc(ccc31)-c1csc(n1)C[C@H](NC(=O)[C@H]1C[C@@H]1C)C(=O)N1CCC[C@H](N1)C(=O)OCC(C)(C)C2 (atropisomer, axis not shown) [Compound 49, (1S,2S)-N-((6^3S,4S,Z)-1^1-ethyl-1^2-(5-(5-((1-imino-1-oxido-1λ^6-thiomorpholino)methyl)pyrimidin-2-yl)-2-((S)-1-methoxyethyl)pyridin-3-yl)-10,10-dimethyl-5,7-dioxo-6^1,6^2,6^3,6^4,6^5,6^6-hexahydro-1^1H-8-oxa-2(4,2)-thiazola-1(5,3)-indola-6(1,3)-pyridazinacycloundecaphane-4-yl)-2-methylcyclopropane-1-carboxamide] |
| 8.5 | 7.8 | CCn1c(-c2cc(-c3ccc(CN4CC[C@@H](S(C)(=O)=O)C4)cn3)cnc2[C@H](C)OC)c2c3cc(ccc31)-c1csc(n1)C[C@H](NC(=O)[C@H]1C[C@@H]1C)C(=O)N1CCC[C@H](N1)C(=O)OCC(C)(C)C2 (atropisomer, axis not shown) [Compound 50, (1S,2S)-N-((6^3S,4S,Z)-1^1-ethyl-1^2-(6′-((S)-1-methoxyethyl)-5-(((R)-3-(methylsulfonyl)pyrrolidin-1-yl)methyl)-[2,3′-bipyridin]-5′-yl)-10,10-dimethyl-5,7-dioxo-6^1,6^2,6^3,6^4,6^5,6^6-hexahydro-1^1H-8-oxa-2(4,2)-thiazola-1(5,3)-indola-6(1,3)-pyridazinacycloundecaphane-4-yl)-2-methylcyclopropane-1-carboxamide] |
| 0.9 | 1.2 | CCn1c(-c2cc(-c3ncc(CN4CCS(=O)(=O)CC4)cn3)cnc2[C@H](C)OC)c2c3cc(ccc31)-c1csc(n1)C[C@H](NC(=O)[C@H]1C[C@@H]1C)C(=O)N1CCC[C@H](N1)C(=O)OCC(C)(C)C2 (atropisomer, axis not shown) [Compound 51, (1S,2S)-N-((6^3S,4S,Z)-1^2-(5-(5-((1,1-dioxidothiomorpholino)methyl)pyrimidin-2-yl)-2-((S)-1-methoxyethyl)pyridin-3-yl)-1^1-ethyl-10,10-dimethyl-5,7-dioxo-6^1,6^2,6^3,6^4,6^5,6^6-hexahydro-1^1H-8-oxa-2(4,2)-thiazola-1(5,3)-indola-6(1,3)-pyridazinacycloundecaphane-4-yl)-2-methylcyclopropane-1-carboxamide] |
| 0.21 | 1.2 | CCn1c(-c2cc(-c3cc4c(n(C)c3=O)CCN(C)C4)cnc2[C@H](C)OC)c2c3cc(ccc31)-c1csc(n1)C[C@H](NC(=O)[C@H]1C[C@@H]1C)C(=O)N1CCC[C@H](N1)C(=O)OCC(C)(C)C2 (atropisomer, axis not shown) [Compound 52, (1S,2S)-N-((6^3S,4S,Z)-1^2-(5-(1,6-dimethyl-2-oxo-1,2,5,6,7,8-hexahydro-1,6-naphthyridin-3-yl)-2-((S)-1-methoxyethyl)pyridin-3-yl)-1^1-ethyl-10,10-dimethyl-5,7-dioxo-6^1,6^2,6^3,6^4,6^5,6^6-hexahydro-1^1H-8-oxa-2(4,2)-thiazola-1(5,3)-indola-6(1,3)-pyridazinacycloundecaphane-4-yl)-2-methylcyclopropane-1-carboxamide] |
| 4.3 | 1.7 | CCn1c(-c2cc(-c3cnc(CN4CCN(C)CC4)nc3)cnc2[C@H](C)OC)c2c3cc(ccc31)-c1csc(n1)C[C@H](NC(=O)[C@H]1C[C@@H]1C)C(=O)N1CCC[C@H](N1)C(=O)OCC(C)(C)C2 (atropisomer, axis not shown) [Compound 53, (1S,2S)-N-((6^3S,4S,Z)-1^1-ethyl-1^2-(2-((S)-1-methoxyethyl)-5-(2-((4-methylpiperazin-1-yl)methyl)pyrimidin-5-yl)pyridin-3-yl)-10,10-dimethyl-5,7-dioxo-6^1,6^2,6^3,6^4,6^5,6^6-hexahydro-1^1H-8-oxa-2(4,2)-thiazola-1(5,3)-indola-6(1,3)-pyridazinacycloundecaphane-4-yl)-2-methylcyclopropane-1-carboxamide] |
